“Also recorded” adds a separate entry of the source. Where two headings read alike, the source gives them in different places.
How the values were obtained:
[1] = tested on: MCF-7 human breast cancer cells; assay: In vitro MCF-7 human breast cancer cell growth inhibition assay; format: cell-based; details: for inhibition at 1 µM: Homo sapiens
Text: The biological evaluation of the test compounds consisted of the in vitro rat cytosolic estradiol receptor binding assay, the in vivo immature mouse uterotrophic (estrogenic) and antiuterotrophic (antiestrogenic) assays, and the in vitro suppression of the proliferation of the ER positive MCF-7 human breast cancer cell line. Estradiol (pure agonist), TAM (agonist in mice and antagonist in MCF-7), MER 25 (pure antagonist) and Analog II (antagonist in mice) were used in the assay as standards.
MCF-7 (estrogen-receptor positive) human breast cancer cells (obtained from the Michigan Cancer Foundation, Detroit, Mich.) were grown at 37° C. in 75 cm^2 tissue culture (T-75) flasks, as monolayer cultures in RPMI 1640 phenol red-free media supplemented with 2 mM L-glutamine, gentamicin (50 μg/mL), penicillin (100 units/mL), streptomycin (100 μg/mL ) and calf serum (5%). Cultures were grown in an incubator 37° C. in a humid 5% CO2 atmosphere, and fed on alternate days. Expotential growth was maintained by subculturing at eight day intervals when the cells per T-75 flask reached 10 to 12×10^6 cells. Cells were trypsinized, washed and plated in multiwell plates at a density of 5×10^4 cells/well in 3 mL of RPMI 1640 media. The cells were allowed to attach and were in logarithmic growth when the test compounds were added. The test compounds (10^-6 M) in the presence or absence of a 10-fold lower dose of estradiol were dissolved in a polyethylene glycol 400: ethanol (55:45) mixture and added in the culture media in duplicate. Control samples received vehicle alone at the same concentration used in the treatment groups. The final concentration of the vehicle mixture was 0.1% of the incubation media. Cell growth was measured on alternate days using the hemocytometric trypan blue exclusion method. Percent inhibition of MCF-7 cells was calculated as the ratio of the control mean cell count per well minus the treatment group mean cell count per well to the control mean cell count per well, multiplied by 100.
^b % MCF7 inhibition was calculated as follows: […]
Thirteen compounds, Analog II, TAM, and MER 25 were tested for their antiproliferative activity in the MCF-7 human breast cancer cell line (Table II). Compounds were tested at a concentration of 10^-6 M in the presence or absence of 10^-7 M estradiol to assess their ability to alter the growth of the calls (Table II). The 10^-6 M concentration was selected since it was reported that the inhibition of the MCF-7 cells by antiestrogens and TAM occurred either at that concentration or less, and were both selective and estrogen receptor specific. Concentrations of antiestrogens greater than 5×10^-6 M were reported to have nonspecific cytotoxic effects (BRIAND, P. AND […], A. E. (1984), "Effect of estrogen and antiestrogen on the human breast cancer cell line MCF-7 adapted to growth at low serum concentration", Cancer Research, 44, 1114).

[2] = Stability observed during isolation and storage; format: physicochemical; details: on concentration, drying or storage
Procedure: The structures of all compounds were supported by their proton NMR spectra, which were measured on either a Varian EM-360A or XL-300 spectrometer. The spectra are reported in parts per million in CDCl3 unless otherwise noted, with tetramethysilane as the internal standard. Infrared spectra were obtained from KBr pellets on a Beckman Acculab 1 spectrometer and were consistent with the assigned structures. Silica gel (for example, obtained commercially from J. T. Baker) of approximately 40 μm diameter was used for flash chromatography (STILL, W. C., KAHN, M. AND MITRA, A. (1978), "Rapid chromatographic technique for preparative separations with moderate resolutions", Journal of Organic Chemistry, 43, 2923), which was performed at 5-10 psi. Petroleum ether was of bp 30°-60° C. When necessary, solvents or reagents were dried by appropriate methods. Evaporations were carried out in vacuo on a rotary evaporator or under a stream of dry N2. Melting points were taken on a Thomas-Hoover capillary melting point apparatus and are uncorrected. Reaction progress and product purity were monitored by analytical TLC on strips of Eastman Kodak plastic-backed SiO2 60 F254 or Al2 O3 F254. Developed strips were viewed under light of 254 and 365 nm wavelengths. Elemental analyses were done by Midwest Microlab Ltd., Indianapolis, IN. Acceptable elemental results are denoted in Table I by the formula, followed by the elements analyzed. Melting points and yields of all compounds were based on pure samples unless otherwise noted, are listed in Table I. Para-Bromoanisole, p-methoxydeoxybenzoin, anisole, p-methoxybenzaldehyde, and 2,3-bis-(p-methoxyphenyl)-acrylic acid and trans-p-methoxystilbene (the olefin), were purchased from Aldrich & Co. The cyclopropanes 1,1-dichloro-cis-2-(p-hydroxyphenyl)-3-phenylcyclopropane (9), and its trans isomer 1,1-dichloro-trans-2-(p-Hydroxyphenyl)-3phenylcyclopropane (17) were prepared from Compounds 8 & 16, respectively. […] Tamoxifen was obtained from Stuart Pharmaceuticals, Division of ICI Americas, Inc., Wilmington, Del. 19897. MER 25 was obtained from the Merrell Dow Research Institute, Division of Merrell Dow Pharmaceuticals, Inc., Cincinnati, Ohio. Protein Assay Reagent, Pierce Chemical Co., Rockford, Ill. 61105. Diethylstilbestrol, β-estradiol, EDTA, DL-dithiothreitol, Sodium molybdate, and Tris (hydroxymethyl) aminomethane hydrochloride were purchased from Sigma Chemical Co., St. Louis, Mo. 63178.
Essentially, the intermediate olefin acids (Compounds 6 & 12) were obtained from a mixed Perkin and Knoevenagel-type condensation involving the reaction of p-methoxyaldehyde (Compound 4) with phenylacetic acid (Compound 5), or p-methoxyphenylacetic acid (Compound 11) in triethylamine and acetic anhydride. To prepare cis-p-methoxystilbene (Compound 7) or bis-(p-methoxy)-cis-stilbene (Compound 13). Decarboxylation of 6 & 12 with quinoline (prevents isomerizations; KLEIN, J. AND MEYER, A. Y. (1964), "The decarboxylation of α-cyano-and α-carboxycinnamic acids", Journal of Organic Chemistry, 29, 1038), and copper chromite at elevated temperature provided 7 & 13. High temperature during distillation caused 8% isomerization to the trans-isomer (15), which was isolated by column chromatography. Dichlorocarbene generation used the catalytic phase transfer method (21, 37) (used extensively in our laboratory) of 50% aqueous solution of NaOH, CHCl3 and benzyltriethylammonium chloride (TEBA) as the anion transfer agent. […]

Row | Structure (SMILES) | effect on MCF-7 cell growth (in words) ([1]; 10^-6 M) | inhibition at 1 µM ([1]; MCF7, 10^-6 M, versus control mean cell count, read-out: MCF-7 Inhibition) [%] | stability (in words) [2] | reversal of growth inhibition by estradiol (in words) ([1]; 10^-7 M estradiol) | inhibition at 1 µM ([1]; MCF7, read-out: MCF-7 Inhibition) [%] | effect on estradiol-induced cell growth (in words) ([1]; with 10^-7 M estradiol)
1 | CC(=O)Oc1ccc([C@H]2[C@@H](c3ccccc3)C2(Cl)Cl)cc1 (relative stereo) [Compound 10, 1,1-Dichloro-cis-2-(p-acetoxyphenyl)-3-phenylcyclopropane] | inhibited cell growth | 32 | stable light-yellow oil at 0 °C | – | – | –
2 | Oc1ccc(C2(c3ccc(O)cc3)C(Cl)(Cl)C23CCCCC3)cc1 [Compound 30, 1,1-Dichloro-2,2-bis-(p-hydroxyphenyl)-spiro[2.5]octane] | active inhibitors of cell growth | – | gradually turned to light-orange; also recorded: underwent a gradual color change | reversed by 10^-7 M estradiol | 21.3 | enhanced estradiol-induced cell growth above the control

— patent US5663207A, “Gem-dichlorocyclopropanes as antitumor agents” (priority 1995, dated 1997)
